For data set [1], the system named is IL-5. As to the kind of experiment: Effect on cytokine production of mice sensitized by controlled-release ovalbumin: IL-5. It is filed as in vivo, BALB/c mouse. Conditions: 30 mg/kg b.w. orally, 5 days a week during 9-day period, splenic cells incubated with OVA 3 days, ELISA; for inhibition in vivo at 30 mg/kg: Mus musculus, po, read-out: Suppression Rate (%) IL-5. The method, then:
(§1) Effect on Cytokine Production of Mice Sensitized by Controlled-Release Ovalbumin
(§2) An osmotic pump (Alza Co., USA) containing a solution (100 μL) containing 1.0 mg of ovalbumin (OVA; albumin chicken egg grade III, Sigma Chemical) was implanted in the back of a male BALB/c mouse (Charles River) of 8 weeks old under ether anesthesia, and the mouse is sensitized by the controlled-release ovalbumin. After 11 days from implantation of the pump, a sample of spleen was removed, and a splenic cell suspension was prepared by the use of the RPMI-1640 medium (Bio Whittaker Inc., USA) containing inactivated fetal bovine serum (10% V/V; Bio Whittaker Inc., USA), 2-mercaptoethanol (50 μM), and gentamicin (20 μg/ml). A sample compound (30 mg/kg b.w.) was suspended in 0.4 ml of methylcellulose (MC), and the suspension was orally administered, 5 days a week during the 9-day period from the initiation day of sensitization to the day before the day of blood sample collection (1 Group, n=10). The splenic cell suspension was adjusted to a concentration of 5.0×10^6 cells/ml, and the resulting suspension (100 μl) was pipetted onto a 96 well U-bottomed plate, each of the wells containing a solution (100 μl/well) of 400 μg/ml OVA, and the plate was incubated at 37° C. in a 5% carbon dioxide gas incubator for 3 days. The cultured media were centrifuged at 200×g for 5 minutes, and the supernatants were collected and the production of IL-4, IL-5 and IFN-γ in each of the supernatants was determined by the ELISA method [Mouse IL-4 Bulk Kit (PerSeptive Biosystems), Mouse IL-5 Bulk Kit (PerSeptive Biosystems), and Mouse IFN-γ Bulk Kit (PerSeptive Biosystems)].

Data set [2] has as its system OVA-specific IgE. Nature of the data set: Effect on antibody production of ovalbumin-sensitized mice: IgE. Conditions: 30 mg/kg b.w. orally, 5 days a week during 9-day period, serum 11 days after first sensitization, ELISA; for inhibition in vivo at 30 mg/kg: Mus musculus, po, 264 h, read-out: Suppression Rate (%) IgE. It is filed as in vivo, BALB/c mouse. As to the method: (§3) Effect on Antibody Production of Mice Sensitized by Controlled-Release Ovalbumin
(§4) A male BALB/c mouse (Charles River) of 7 weeks old was sensitized by intraabdominal administration, twice at an interval of a week, of a mixture of 10 μg/mouse of ovalbumin (OVA; albumin chicken egg grade III; Sigma Chemical) and 1 mg of aluminum hydroxide hydrate gel suspension (Alum; LSL Co. LTD.). After 11 days from the first sensitization, blood was collected from beneath eye under ether anesthesia, and the amount of OVA-specific IgE, IgG1 (Th2 type) and IgG2a (Th1 type) antibodies in the serum were determined by the ELISA method. A sample compound (30 mg/kg b.w.) was suspended in 0.4 ml of methylcellulose (MC), and the suspension was orally administered, 5 days a week during the 9-day period from the initiation day of sensitization to the day before the day of blood sample collection (1 Group, n=8 to 10).

For data set [3], the system named is IFN-γ. Nature of the data set: Effect on cytokine production of mice sensitized by controlled-release ovalbumin: IFN-γ. It is filed as in vivo, BALB/c mouse. Conditions: 30 mg/kg b.w. orally, 5 days a week during 9-day period, splenic cells incubated with OVA 3 days, ELISA; for inhibition in vivo at 30 mg/kg: Mus musculus, po, read-out: Suppression Rate (%) IFN-γ. The method, then:
as §1, §2

In data set [4] the test system is IL-4. Nature of the data set: Effect on cytokine production of mice sensitized by controlled-release ovalbumin: IL-4. It is filed as in vivo, BALB/c mouse. The following applies: 30 mg/kg b.w. orally, 5 days a week during 9-day period, splenic cells incubated with OVA 3 days, ELISA; for inhibition in vivo at 30 mg/kg: Mus musculus, po, read-out: Suppression Rate (%) IL-4. The method, then:
as §1, §2

Data set [5] deals with OVA-specific IgG2a (Th1 type). Nature of the data set: Effect on antibody production of ovalbumin-sensitized mice: IgG2a. It is filed as in vivo, BALB/c mouse. Conditions: 30 mg/kg b.w. orally, 5 days a week during 9-day period, serum 11 days after first sensitization, ELISA; for inhibition in vivo at 30 mg/kg: Mus musculus, po, 264 h, read-out: Suppression Rate (%) IgG2a. The method, then:
as §3, §4

The subject of data set [6] is carrageenin edema of right hind limb plantar. Nature of the data set: Anti-inflammatory activity, carrageenin edema method. It is filed as in vivo, SD-rats. Conditions: po, 10 mg/kg orally. The method, then:
Anti-Inflammatory Activity
Male SD-rats (6 weeks old, CLEA Japan) were used (1 group, n=6). The Carrageenin edema method was performed according to the method of Winter et. al., (Proc. Soc. Exp. Biol. Med., vol. 111, p. 544-547, 1962). After the volume of right hind limb plantar of the rat was determined, a sample was orally administered (1.0 mL, b.w.), and immediately water was orally administered in an amount of 5 mL/rat. Meanwhile, only the solvent of the sample was orally administered to rats in control. After 1 hour, a solution of 1% carrageenin in saline (0.05 mL) was injected into the right hind limb plantar subcutaneously to induce edema. After 2 and 3 hours later from the injection, volumes of the right hind limb plantar were determined. The repression rate (%) of the sample was calculated by comparing the difference of the volumes of the plantar before the carrageenin shot and 2 and 3 hours after the shot between the sample groups and the control groups.

For data set [7], the system named is acetic acid induced rising and stretching. Nature of the data set: Analgesic activity, acetic acid rising method. Conditions: po, 20 min; 10 mg/kg orally, 30 minutes before 0.6% acetic acid i.p.; number of rising and stretching in 20 minutes; read-out: Repression rate (%) Dosage 10 mg/kg. It is filed as in vivo, ICR-mice. As to the method: Analgesic Activity Acetic Acid Rising Method Male ICR-mice (5 weeks old, CLEA Japan) were used (1 group, n=10), and a sample was orally administered (0.2 mL/10 g, b.w.). After 30 minutes, 0.6% acetic acid solution was injected to mice intraperitoneally (0.1 mL/10 g, b.w.), and the mice were immediately transferred into an observation cage made of a transparent acrylic resin. The number of rising and stretching during the following period of 20 minutes was counted. The repression rate (%) was calculated by comparing the average numbers between the sample groups and the control groups.

Structures can show the parent of a compound that is named as a salt. Where two headings read alike, the source gives them in different places. Marks after values point to notes of the source that are not given here.

On to `Cc1cccc2c(=O)c3c(C)nn(-c4ccccn4)c3[nH]c12` [Example 1-47, 3,8-Dimethyl-1-(2-pyridinyl)-1,9-dihydro-4H-pyrazolo[3,4-b]quinolin-4-one], for which the inhibition in vivo at 30 mg/kg in data set [1] was 61.1%; in data set [2] it was 4.9%; in data set [3], 31.8%; in data set [4], 49.9%; in data set [5], -17.1%.
For `CSc1ccc2[nH]c3c(c(C)nn3-c3ccccn3)c(=O)c2c1` [Example 1-50, 3-Methyl-6-(methylsulfanyl)-1-(2-pyridinyl)-1,9-dihydro-4H-pyrazolo[3,4-b]quinolin-4-one], the melting point is 182 to 185 °C. The inhibition in vivo at 30 mg/kg in data set [1] came to 60.2%. Also, the inhibition in vivo at 30 mg/kg in data set [2] turned out to be 22%. The inhibition in vivo at 30 mg/kg in data set [3] is 11.1%. Also, the inhibition in vivo at 30 mg/kg in data set [4] is 45.5%. Besides, the inhibition in vivo at 30 mg/kg in data set [5] is 19.5%.
On to `COc1cccc(-n2nc(C)c3c(N)c4cccc(C)c4nc32)n1` [Example 1-59, 3,8-Dimethyl-1-(6-methoxy-2-pyridinyl)-1H-pyrazolo[3,4-b]quinolin-4-ylamine], for which the inhibition in vivo at 30 mg/kg in data set [1] is 27.8%; in data set [2], 60.7%; in data set [3] it was -124%; in data set [4] it was 66.5%; in data set [5], 46.3%.
In turn, `Cc1nn(-c2ccccn2)c2[nH]c3cc(F)c(Cl)cc3c(=O)c12` [Example 2-99, 6-Chloro-7-fluoro-3-methyl-1-(2-pyridinyl)-1,9-dihydro-4H-pyrazolo[3,4-b]quinolin-4-one] came in with a melting point of 284 °C. Also, the inhibition in vivo at 10 mg/kg in data set [6] (2 hr after carrageenin injection, read-out: Repression rate (%) Dosage 10 mg/kg 2 hr later) was found to be 46%. In addition, in data set [6] (3 hr after carrageenin injection, read-out: Repression rate (%) Dosage 10 mg/kg 3 hr later), the inhibition in vivo at 10 mg/kg came out at 41%. For the same molecule, the inhibition in vivo at 10 mg/kg in data set [7] amounted to 39%.
`Cc1nn(-c2ccccn2)c2nc3ccccc3c(N)c12.Cl` [Example 1-36, 3-Methyl-1-(2-pyridinyl)-1H-pyrazolo[3,4-b]quinolin-4-ylamine hydrochloride] returned a melting point of 268 to 271 °C. Besides, the inhibition in vivo at 30 mg/kg in data set [1] turned out to be 61.5%. Also, the inhibition in vivo at 30 mg/kg in data set [2] came to 64.2%. Further, in data set [3], the inhibition in vivo at 30 mg/kg is -131%. Also, the inhibition in vivo at 30 mg/kg in data set [4] is 99.8%. Besides, the inhibition in vivo at 30 mg/kg in data set [5] was found to be 23.4%.
Consider `CCOc1cccc(-n2nc(C)c3c(N)c4cccc(C)c4nc32)n1` [Example 1-60], for which the “Suppression Rate (%) IL-5” value in data set [1] was 59.3%. Moreover, in data set [2], the “Suppression Rate (%) IgE” value is listed as 54.9** %. Besides, the “Suppression Rate (%) IFN-γ” value in data set [3] was found to be 23.4%. Also, in data set [4], the “Suppression Rate (%) IL-4” value is 56.7%. Moreover, the “Suppression Rate (%) IgG2a” value in data set [5] is on record as 47.8%.
Regarding `CCOc1cccc(-n2nc(C)c3c(Cl)c4c(C)cccc4nc32)n1` [Example 1-57, 4-Chloro-3,5-dimethyl-1-(6-ethoxy-2-pyridinyl)-1H-pyrazolo[3,4-b]quinoline], the inhibition in vivo at 30 mg/kg in data set [1] is 53.9%; in data set [2], 23.6%; in data set [3], 36.7%; in data set [4], 43.2%; in data set [5], -55.1%.
The molecule `Cc1cccc2nc3c(c(C)nn3-c3ccccn3)c(N)c12` [Example 1-44, 3,5-Dimethyl-1-(2-pyridinyl)-1H-pyrazolo[3,4-b]quinolin-4-ylamine] had a melting point of 252 to 255 °C. Besides, in data set [1], the inhibition in vivo at 30 mg/kg worked out at 3.1%. Moreover, in data set [3], the inhibition in vivo at 30 mg/kg was 36.3%. The inhibition in vivo at 30 mg/kg in data set [4] amounted to 68.2%.
On to `Cc1nn(-c2ncccn2)c2nc3ccccc3c(N)c12` [Example 1-65, 3-Methyl-1-(2-pyrimidinyl)-1H-pyrazolo[3,4-b]quinolin-4-ylamine hydrochloride], for which the inhibition in vivo at 30 mg/kg in data set [1] is 16.5%; in data set [3] it was -15.7%; in data set [4] it was 8.1%.
The like results for `Cc1nn(Cc2ccccn2)c2[nH]c3ccccc3c(=O)c12` [Example 1-69, 3-Methyl-1-(2-pyridinylmethyl)-1,9-dihydro-4H-pyrazolo[3,4-b]quinolin-4-one] were, in that order, 50%, 8.3% and 19.4%.
For `Cc1cccnc1-n1nc(C)c2c(N)c3cccc(C)c3nc21` [Example 1-62, 3,8-Dimethyl-1-(3-methyl-2-pyridinyl)-1H-pyrazolo[3,4-b]quinolin-4-ylamine], the inhibition in vivo at 30 mg/kg in data set [1] was 4.8%; in data set [3], -13.8%; in data set [4], 19.4%.
The like results for `COc1cccc2c(N)c3c(C)nn(-c4ccccn4)c3nc12` [Example 1-48, 8-Methoxy-3-methyl-1-(2-pyridinyl)-1H-pyrazolo[3,4-b]quinolin-4-ylamine hydrochloride] were, in that order, 16.2%, -7.6% and 31.6%.
Regarding `Cc1nn(-c2ccccn2)c2[nH]c3ccc(Cl)cc3c(=O)c12` [Example 1-51, 6-Chloro-3-methyl-1-(2-pyridinyl)-1,9-dihydro-4H-pyrazolo[3,4-b]quinolin-4-one], the inhibition in vivo at 30 mg/kg is 53.7% in data set [1], -11.2% in data set [3] and 31.9% in data set [4].
